Test results reported in paper PMC10254649, “Design, Synthesis, and Biological Evaluation of Potent and Selective Inhibitors of Ataxia Telangiectasia Mutated and Rad3-Related (ATR) Kinase for the Efficient Treatment of Cancer” (Molecules, 2023).
“And” between values parts separate entries of the source, which are not always exact repeats. Identical values can stand only once. Like-named read-outs stand apart in the source and are kept apart here.

Tests used:
ATR = ATR (Homo sapiens, UniProt Q13535); experiment: In vitro inhibitory activity against the ATR enzyme; type: biochemical
A549 cells = experiment: CCK-8 cell proliferation assay, A549; type: cell-based; conditions: Homo sapiens, CCK-8, 72 h, ATM-normal cell line, three independent experiments, read-out: IC50 ± SD, A549
Experimental: (§1) A549, HCT116, NCI-H23, and LoVo cells were purchased from the Cell Resources Center of Shanghai Academy of Life Sciences, Shanghai, China. A549 cells were cultured in McCoy’s5A medium supplemented with 10% FBS (KeyGEN Biotech, Nanjing, China) and 1% penicillin/streptomycin (Gibco, 15070-063). HCT116 cells were cultured in IMDM medium supplemented with 10% FBS (KeyGEN Biotech, Nanjing, China) and 1% penicillin/streptomycin (Gibco, 15070-063). NCI-H23 cells were cultured in RPMI 1640 medium supplemented with 10% FBS (KeyGEN Biotech, Nanjing, China) and 1% penicillin/streptomycin (Gibco, 15070-063). LoVo cells were cultured in F12K medium supplemented with 10% FBS (KeyGEN Biotech, Nanjing, China) and 1% penicillin/streptomycin (Gibco, 15070-063). All cells were cultured in an incubator at 37 °C under a 5% CO2 atmosphere.
(§2) For the assay, 3000/well cells were planted into 96-well plates for 24 h and then treated with the indicated doses of drugs or controls for 72 h. Following the manufacturer’s instructions, cell proliferation/survival was measured using the CCK-8 (KeyGEN Biotech, Nanjing, China) assay and plotted via GraphPad 8.0.

HCT116 cells = experiment: CCK-8 cell proliferation assay, HCT116; type: cell-based; conditions: Homo sapiens, HCT-116; CCK-8, 72 h, ATM-normal cell line, three independent experiments; read-out: IC50 ± SD, HCT116
Experimental: as §1, §2

NCI-H23 cells = experiment: CCK-8 cell proliferation assay, NCI-H23; type: cell-based; conditions: Homo sapiens, CCK-8, 72 h, ATM-deficient cell line, three independent experiments, read-out: IC50 ± SD, NCI-H23
Experimental: as §1, §2

LoVo cells [1] = experiment: CCK-8 cell proliferation assay, LoVo; type: cell-based; conditions: Homo sapiens, CCK-8, 72 h, ATM-deficient cell line, three independent experiments, read-out: IC50 ± SD, LoVo
Experimental: as §1, §2

LoVo cells [2] = experiment: Annexin V-FITC/PI apoptosis assay by flow cytometry; type: cell-based, human; conditions: 1 μM
Experimental: The percentage of apoptotic cells was determined by the Annexin V-FITC/PI double staining kit (KeyGEN Biotech, Nanjing, China). According to the manufacturer’s instructions, LoVo cells were stained with Annexin V-FITC and PI. The signal of the FITC and PI was recorded by BD FACSCelesta Flow Cytometer (BD FACSCelesta, Becton, Dickinson and Company) and the FlowJo software.

LoVo xenografts = experiment: LoVo tumor xenograft mouse model, antitumor efficacy and tolerability; type: in vivo; conditions: for tumor growth inhibition (TGI): days 1-18, single agent
Experimental: Balb/c nude mice (18–22 g, female, 4 weeks old) were purchased from Hangzhou Medical College (Hangzhou, China). All mice were inoculated subcutaneously in the right flank with 5 × 10^6 LoVo cells to initiate tumor growth. When the mean tumor volume reached approximately 100 mm^3, all mice were randomly divided into 8 groups (n = 5 per group) based on body weight and volume. […] Cisplatin was administered twice a week at the indicated doses. Tumor size and animal weight were measured every 3 days. Tumor volume was calculated as tumor volume (cm^3) = (length × width^2)/2. Tumor inhibition rate (%) = (1 − mean tumor weight in the treatment group/mean tumor weight in the control group) × 100%. The results were obtained from 5 test mice (mean ± SD) and calculated using GraphPad 8.0 software.

207 kinases = experiment: Kinase panel selectivity screen at 1 μM; type: biochemical, human; conditions: single concentration of 1 μM, duplicate
LoVo cells [3] = experiment: Colony formation assay; type: cell-based, human; conditions: 14 days
Description: LoVo cells at a concentration of 800 cells/well were exposed to various concentrations of ZH-12 for 14 days. After 14 days of treatment, the colonies were fixed with 4% paraformaldehyde, stained with 0.1% crystal violet, and imaged using an upright biological microscope (Olympus BX53, Tokyo, Japan). The experiments were repeated at least three times and plotted via GraphPad 8.0.

LoVo cells [4] = experiment: Wound healing migration assay; type: cell-based, human; conditions: 48 h
Experimental: LoVo cells in the logarithmic phase were collected and seeded in 6-well plates and cultured overnight. A straight line was drawn across the cell with a sterile pipette tip. A culture medium containing different concentrations of ZH-12 or 0.1% DMSO (10% FBS) was added. Scratch widths were recorded under an inverted microscope (Olympus, Waltham, MA, USA) at 0 h and 48 h.

LoVo cells [5] = experiment: Comet assay for DNA damage; type: cell-based, human; conditions: 72 h
Experimental: The comet assay was performed following the protocol of the manufacturer of the Comet Assay Kit (KeyGEN Biotech, Nanjing, China). […] After 3 days of treatment, the cells (1 × 10^4/mL) were collected, mixed with low-melting agarose at a ratio of 1:10 (v/v), layered on slides, lysed in lysis buffer at 4 °C for 2 h, and then lysed in alkaline lysis solution at room temperature for 30 min. Following electrophoresis, the cells were stained with PI and observed with an […] biomicroscope (Olympus BX53, Tokyo, Japan). Three images were randomly captured per slide.

[6] = test system: p-ATR(Thr1989) and p-CHK1(Ser345); experiment: Western blot of ATR/CHK1 signaling in HU-treated LoVo cells; type: cell-based, human; conditions: LoVo cells treated with HU (hydroxyurea)
Experimental: (§3) LoVo cells with a density of 1 × 10^6 were inoculated in a small cell culture dish at a single density for 24 h and then treated with the specified concentration of 5% dimethyl sulfoxide or compound at different times. The cells were washed with cold PBS and lysed with RIPA buffer (Beyotime, Shanghai, China) containing protease inhibitors (Beyotime, Shanghai, China) and phosphatase inhibitors (Beyotime, Shanghai, China). After lysis of the total cell solution on ice for 60 min, the lysate was centrifuged (12,000 rpm, 4 °C, 20 min); The total protein concentrations obtained were determined using the BCA kit (Beyotime, Shanghai, China). A proper 6 × loading buffer was added before use, and the samples were denatured by boiling. Then, 30–100 μg of protein was loaded onto a 4–12% SDS-PAGE gel and then transferred to the PVDF membrane (Millipore). The membrane was occluded for 1 h, incubated overnight with primary antibody at 4 °C, followed by washing 3 times with Tris-buffered saline and Tween 20 (TBST) for 10 min. After incubation with a second antibody with horseradish peroxidase for 60 min at room temperature, the membrane was washed 3 times for 10 min with TBST. Finally, blotting was performed with an enhanced chemiluminescence assay kit (KeyGEN Biotech, Nanjing, China). The software ImageJ was used to quantify the percentage degradation of proteins. […]

[7] = test system: p-ATR(Thr1989) and p-CHK1(Ser345); experiment: Western blot of ATR/CHK1 signaling in LoVo xenograft tumors; type: in vivo, Balb/c nude mice; conditions: LoVo xenograft tumors, 50, 25 and 12.5 mg/kg
Experimental: as §3, with “The membrane was occluded for 1 h, incubated overnight with primary antibody at 4 °C, followed by washing 3 times with Tris-buffered saline and Tween 20 (TBST) for 10 min. After incubation with a second antibody with horseradish peroxidase for 60 min at room temperature, the membrane was washed 3 times for 10 min with TBST. Finally, blotting was performed with an enhanced chemiluminescence assay kit (KeyGEN Biotech, Nanjing, China).” left out
Balb/c nude mice (18–22 g, female, 4 weeks old) were purchased from Hangzhou Medical College (Hangzhou, China). […] Tumor size and animal weight were measured every 3 days. Tumor volume was calculated as tumor volume (cm^3) = (length × width^2)/2. […] The results were obtained from 5 test mice (mean ± SD) and calculated using GraphPad 8.0 software.

Chain of ATR (Q13535 whole entry): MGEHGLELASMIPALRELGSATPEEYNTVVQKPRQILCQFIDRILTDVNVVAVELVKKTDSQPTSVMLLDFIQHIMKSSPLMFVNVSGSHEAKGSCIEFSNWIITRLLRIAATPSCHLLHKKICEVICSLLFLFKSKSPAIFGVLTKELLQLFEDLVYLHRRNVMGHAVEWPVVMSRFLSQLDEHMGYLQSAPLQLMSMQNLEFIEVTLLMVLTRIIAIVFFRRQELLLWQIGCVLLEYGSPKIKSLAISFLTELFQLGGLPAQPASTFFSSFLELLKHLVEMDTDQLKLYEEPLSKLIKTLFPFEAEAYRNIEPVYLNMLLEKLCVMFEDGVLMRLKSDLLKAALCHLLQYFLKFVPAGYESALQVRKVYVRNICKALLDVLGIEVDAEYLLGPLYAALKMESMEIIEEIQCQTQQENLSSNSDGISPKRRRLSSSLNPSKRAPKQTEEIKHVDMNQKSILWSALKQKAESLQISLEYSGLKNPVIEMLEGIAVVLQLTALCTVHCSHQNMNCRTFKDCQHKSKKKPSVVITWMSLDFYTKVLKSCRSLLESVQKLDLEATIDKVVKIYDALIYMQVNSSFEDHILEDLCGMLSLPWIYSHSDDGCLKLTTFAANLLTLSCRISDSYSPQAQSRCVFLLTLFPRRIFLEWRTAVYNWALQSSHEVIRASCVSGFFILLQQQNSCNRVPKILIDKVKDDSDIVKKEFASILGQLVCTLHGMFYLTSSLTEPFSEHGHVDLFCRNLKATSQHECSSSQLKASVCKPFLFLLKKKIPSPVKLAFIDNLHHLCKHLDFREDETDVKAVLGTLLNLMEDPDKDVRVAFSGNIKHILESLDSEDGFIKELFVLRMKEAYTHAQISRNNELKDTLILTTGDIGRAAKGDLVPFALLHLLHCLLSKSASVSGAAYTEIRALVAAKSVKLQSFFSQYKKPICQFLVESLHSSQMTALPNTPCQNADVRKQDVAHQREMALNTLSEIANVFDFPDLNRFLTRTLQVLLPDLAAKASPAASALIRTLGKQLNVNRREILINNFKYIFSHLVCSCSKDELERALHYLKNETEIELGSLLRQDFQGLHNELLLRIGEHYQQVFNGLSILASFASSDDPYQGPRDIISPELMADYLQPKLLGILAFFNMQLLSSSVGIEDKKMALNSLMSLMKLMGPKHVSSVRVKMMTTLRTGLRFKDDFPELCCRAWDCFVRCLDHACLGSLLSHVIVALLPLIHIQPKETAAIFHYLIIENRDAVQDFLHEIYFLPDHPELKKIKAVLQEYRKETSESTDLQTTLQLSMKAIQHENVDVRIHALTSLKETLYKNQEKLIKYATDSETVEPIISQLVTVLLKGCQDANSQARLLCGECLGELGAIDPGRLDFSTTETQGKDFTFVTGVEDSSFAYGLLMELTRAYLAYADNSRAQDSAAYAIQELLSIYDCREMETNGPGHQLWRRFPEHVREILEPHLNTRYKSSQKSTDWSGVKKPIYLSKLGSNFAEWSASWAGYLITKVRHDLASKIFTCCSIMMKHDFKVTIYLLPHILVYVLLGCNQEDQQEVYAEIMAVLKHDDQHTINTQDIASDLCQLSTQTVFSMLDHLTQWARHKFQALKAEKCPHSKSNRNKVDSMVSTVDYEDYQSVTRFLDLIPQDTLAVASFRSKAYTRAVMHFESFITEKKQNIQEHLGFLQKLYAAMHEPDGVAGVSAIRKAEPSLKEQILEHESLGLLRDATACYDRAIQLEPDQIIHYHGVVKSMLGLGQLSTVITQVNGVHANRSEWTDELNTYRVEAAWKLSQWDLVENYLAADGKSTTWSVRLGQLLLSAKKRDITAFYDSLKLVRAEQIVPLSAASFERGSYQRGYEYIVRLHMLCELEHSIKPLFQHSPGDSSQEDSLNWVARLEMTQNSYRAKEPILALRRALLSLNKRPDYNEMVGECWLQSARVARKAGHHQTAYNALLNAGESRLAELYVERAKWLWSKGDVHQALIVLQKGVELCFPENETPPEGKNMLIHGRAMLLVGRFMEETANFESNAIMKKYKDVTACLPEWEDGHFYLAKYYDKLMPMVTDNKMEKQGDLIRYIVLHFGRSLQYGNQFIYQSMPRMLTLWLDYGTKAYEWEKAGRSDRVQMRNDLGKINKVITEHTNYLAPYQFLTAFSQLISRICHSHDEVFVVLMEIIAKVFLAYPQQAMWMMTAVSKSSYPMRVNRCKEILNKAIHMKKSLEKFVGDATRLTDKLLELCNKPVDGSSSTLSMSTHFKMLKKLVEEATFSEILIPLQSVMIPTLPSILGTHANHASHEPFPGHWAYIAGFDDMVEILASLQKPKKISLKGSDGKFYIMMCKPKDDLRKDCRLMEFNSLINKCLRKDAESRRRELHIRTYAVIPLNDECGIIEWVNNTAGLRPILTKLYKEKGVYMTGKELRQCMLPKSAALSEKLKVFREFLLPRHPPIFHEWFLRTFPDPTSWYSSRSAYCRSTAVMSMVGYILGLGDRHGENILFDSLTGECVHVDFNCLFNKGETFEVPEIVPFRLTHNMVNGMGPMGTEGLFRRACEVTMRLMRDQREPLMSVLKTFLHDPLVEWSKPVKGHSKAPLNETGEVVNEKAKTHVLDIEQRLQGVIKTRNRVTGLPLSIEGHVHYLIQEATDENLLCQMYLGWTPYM
Chain of ATR (Q8WXE1 whole entry partner): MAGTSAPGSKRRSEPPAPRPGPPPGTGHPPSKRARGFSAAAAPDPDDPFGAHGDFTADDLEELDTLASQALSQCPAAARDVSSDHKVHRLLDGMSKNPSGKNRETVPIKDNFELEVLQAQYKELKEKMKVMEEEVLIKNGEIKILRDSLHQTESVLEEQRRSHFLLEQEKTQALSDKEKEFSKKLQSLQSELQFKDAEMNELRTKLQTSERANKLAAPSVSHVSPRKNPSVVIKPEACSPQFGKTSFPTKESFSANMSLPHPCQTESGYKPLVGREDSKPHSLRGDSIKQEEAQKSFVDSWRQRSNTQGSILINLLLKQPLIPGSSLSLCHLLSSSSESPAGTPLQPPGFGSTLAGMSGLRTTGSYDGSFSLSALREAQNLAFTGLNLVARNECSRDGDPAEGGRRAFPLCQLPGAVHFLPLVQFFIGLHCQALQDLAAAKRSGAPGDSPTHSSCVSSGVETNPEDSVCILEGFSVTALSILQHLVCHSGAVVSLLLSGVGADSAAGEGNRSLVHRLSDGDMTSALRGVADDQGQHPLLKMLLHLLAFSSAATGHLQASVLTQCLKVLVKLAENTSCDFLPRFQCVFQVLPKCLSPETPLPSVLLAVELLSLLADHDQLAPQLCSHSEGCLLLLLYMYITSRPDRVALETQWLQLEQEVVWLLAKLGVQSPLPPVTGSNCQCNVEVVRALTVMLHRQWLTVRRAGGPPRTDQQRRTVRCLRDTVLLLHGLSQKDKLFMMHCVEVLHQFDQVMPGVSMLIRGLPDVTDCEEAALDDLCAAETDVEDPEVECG

C[C@@H]1COCCN1c1nc(-c2cccc3[nH]ccc23)nc2c1CCN(C(=O)CC#N)C2 [ZH-12, (R)-3-(2-(1H-indol-4-yl)-4-(3-methylmorpholino)-5,8-dihydropyrido[3,4-d]pyrimidin-7(6H)-yl)-3-oxopropanenitrile]
IC50 (ATR; mean ± SD of two independent experiments, read-out: ATR IC50 ± SD): 6.81 ± 0.04 nM
IC50 (ATR; read-out: ATR IC50): 6.8 nM
IC50 (A549 cells): 4740 ± 270 nM
IC50 (HCT116 cells): 1610 ± 80 nM
IC50 (NCI-H23 cells): 770 ± 130 nM
IC50 (LoVo cells [1]): 290 ± 10 nM
apoptosis effect (percentage of apoptotic cells) (LoVo cells [2]): 33.8%
tumor growth inhibition (TGI) (LoVo xenografts; 12.5 mg/kg, intraperitoneally, twice daily): 27.0%
tumor growth inhibition (TGI) (LoVo xenografts; 25 mg/kg twice daily, AZD6738 orally, ZH-12 intraperitoneally): 39.5%
tumor growth inhibition (TGI) (LoVo xenografts; 50 mg/kg, intraperitoneally, twice daily): 53.7% and 53.8%
body weight loss or toxicity (LoVo xenografts; ZH-12 12.5, 25 and 50 mg/kg BID for 18 days, single agent): No significant body weight loss or toxicity was observed
inhibitory activities against 207 kinases (207 kinases): weak or no inhibitory activities against 207 kinases
colony formation (cell proliferation) (LoVo cells [3]): inhibited cell proliferation dose-dependently
cell migration, wound healing (LoVo cells [4]): inhibited LoVo cell migration in a dose-dependent manner
DNA damage, comet assay (LoVo cells [5]): induced significant amounts of DNA damage dose-dependently
tail intensity, comet assay (LoVo cells [5]; 0.5 µM): comparable tail intensity to AZD6738
phosphorylation of ATR and CHK1, Western blot [6]: inhibited the phosphorylation of ATR and its downstream kinase CHK1 in a dose-dependent manner
ATR phosphorylation (p-ATR Thr1989) and CHK1 phosphorylation (p-CHK1 Ser345) in tumors [7]: significantly inhibited ATR phosphorylation
